Patent US6706704B2 (priority 2001, dated 2004)

Columns and labels:
[1] = system: CO2 responsiveness of phrenic nerve activity; parameters: species or system cat; details: in vivo
[2] = system: bulbospinal Aug-I neurons of the VRG; test: Iontophoresis of DAMGO and opioid receptor blockers on bulbospinal inspiratory (Aug-I) neurons, extracellular recording; format: in vivo, cat; details: for effect of opioid receptor blocker on DAMGO-mediated depression: naloxonazine 50-90 nA (15 neurons), naltrindole 50-100 nA (10 neurons)
[3] = system: D1-dopamine receptors (phrenic nerve activity); parameters: species or system cat; details: in vivo

## Br.C=CCN1CCc2c(cc(O)c(O)c2Cl)C(c2ccccc2)C1 (racemic) [(±)-chloro-APB, (+/−)6-chloro-7,8-dihydroxy-3-allyl-1-phenyl-2,3,4,5-tetrahydro-1H-3-benzazepine hydrobromide]
[1]
  sensitivity of PN activity to CO2: did not significantly alter the sensitivity of PN activity to CO2

## C[C@@H](NC(=O)[C@@H](N)Cc1ccc(O)cc1)C(=O)NCC(=O)N(C)[C@@H](Cc1ccccc1)C(=O)NCCO [DAMGO, D-Ala^2,N-Me-Phe^4,Gly-ol^5-Enkephalin]
[2]; DAMGO without blocker
  DAMGO-mediated depression: 50-85%
[2]; after DAMGO iontophoresis
  time to restoration of control activity during recovery: 60 to 90 s
[2]; iontophoresis 1-3 minutes, 50-90 nA ejecting currents
  action potential frequency: 50-85 % of control
[2]; iontophoresis, 25 neurons, pentobarbital-anesthetized cats
  effect on discharges of Aug-I neurons: depressed discharges of all Aug-I neurons

## C=CCN1CC[C@]23c4c5ccc(O)c4O[C@H]2/C(=N/N=C2\CC[C@@]4(O)[C@H]6Cc7ccc(O)c8c7[C@@]4(CCN6CC=C)[C@H]2O8)CC[C@@]3(O)[C@H]1C5 [Naloxonazine]
[2]; in the presence of Naloxonazine (50-90 nA)
  DAMGO-mediated depression: 20-35%
[2]; iontophoresis
  effect of opioid receptor blocker on DAMGO-mediated depression: blocked DAMGO-mediated depression in all neurons tested

## Oc1ccc2c3c1O[C@H]1c4[nH]c5ccccc5c4C[C@@]4(O)[C@@H](C2)N(CC2CC2)CC[C@]314 [Naltrindole]
[2]; iontophoresis
  effect of opioid receptor blocker on DAMGO-mediated depression: without effect on all neurons tested

## CN1CCc2cc(Cl)c(O)cc2[C@@H](c2ccccc2)C1 [R(+)-SCH-23390, (R)(+)-7-chloro-8-hydroxy-3-methyl-1-phenyl-2,3,4,5-tetrahydro-1H-3-benzazepine]
[3]
  effect of D1 antagonist on D1 agonist effects: blocked D1 agonist effects
